Laboratory results reported in ChEMBL document CHEMBL5244202, “Structural evolution of toll-like receptor 7/8 agonists from imidazoquinolines to imidazoles” (RSC Med Chem, 2021).
Values belong to the compound of their own block, whether it stands above or below them.

Key:
Toll-like receptor 7 [1] = target: T1, Toll-like receptor 7 (Homo sapiens, UniProt Q9NYK1); test: Agonist activity at recombinant human TLR7 transfected in HEK293 cells assessed as induction of SEAP production incubated overnight by SEAP reporter gene based assay; format: cell-based
T1 sequence (Q9NYK1 whole entry): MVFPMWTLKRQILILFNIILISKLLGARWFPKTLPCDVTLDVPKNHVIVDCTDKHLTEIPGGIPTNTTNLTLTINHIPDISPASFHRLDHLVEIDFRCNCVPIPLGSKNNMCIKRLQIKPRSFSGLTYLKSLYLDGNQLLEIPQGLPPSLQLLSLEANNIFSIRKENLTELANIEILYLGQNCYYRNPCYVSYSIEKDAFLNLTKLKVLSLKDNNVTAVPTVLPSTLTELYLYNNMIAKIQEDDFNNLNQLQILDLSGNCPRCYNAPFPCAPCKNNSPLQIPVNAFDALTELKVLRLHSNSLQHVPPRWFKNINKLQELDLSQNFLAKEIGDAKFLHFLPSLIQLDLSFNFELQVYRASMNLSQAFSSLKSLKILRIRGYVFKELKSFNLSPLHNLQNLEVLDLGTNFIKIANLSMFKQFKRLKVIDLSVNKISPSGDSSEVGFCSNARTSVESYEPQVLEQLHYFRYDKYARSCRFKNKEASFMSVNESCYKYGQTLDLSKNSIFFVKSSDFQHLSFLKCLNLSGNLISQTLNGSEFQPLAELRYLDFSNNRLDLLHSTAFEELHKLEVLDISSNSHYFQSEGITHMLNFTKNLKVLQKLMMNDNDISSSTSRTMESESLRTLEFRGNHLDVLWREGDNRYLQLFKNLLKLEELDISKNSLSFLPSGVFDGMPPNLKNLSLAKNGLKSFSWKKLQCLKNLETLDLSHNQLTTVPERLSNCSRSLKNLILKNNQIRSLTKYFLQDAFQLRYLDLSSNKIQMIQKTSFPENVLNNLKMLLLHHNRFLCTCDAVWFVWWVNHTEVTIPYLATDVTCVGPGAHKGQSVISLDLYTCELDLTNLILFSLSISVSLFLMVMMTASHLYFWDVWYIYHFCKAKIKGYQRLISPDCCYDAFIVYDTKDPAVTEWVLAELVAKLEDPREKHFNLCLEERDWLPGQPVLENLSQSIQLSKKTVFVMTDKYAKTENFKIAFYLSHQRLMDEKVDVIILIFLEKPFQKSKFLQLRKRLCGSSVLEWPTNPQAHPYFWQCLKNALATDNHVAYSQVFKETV

Toll-like receptor 8 [2] = target: T2, Toll-like receptor 8 (Homo sapiens, UniProt Q9NR97); test: Agonist activity at human TLR8 transfected in HEK293 cells assessed as induction of SEAP production incubated overnight; format: cell-based
T2 sequence (Q9NR97 whole entry): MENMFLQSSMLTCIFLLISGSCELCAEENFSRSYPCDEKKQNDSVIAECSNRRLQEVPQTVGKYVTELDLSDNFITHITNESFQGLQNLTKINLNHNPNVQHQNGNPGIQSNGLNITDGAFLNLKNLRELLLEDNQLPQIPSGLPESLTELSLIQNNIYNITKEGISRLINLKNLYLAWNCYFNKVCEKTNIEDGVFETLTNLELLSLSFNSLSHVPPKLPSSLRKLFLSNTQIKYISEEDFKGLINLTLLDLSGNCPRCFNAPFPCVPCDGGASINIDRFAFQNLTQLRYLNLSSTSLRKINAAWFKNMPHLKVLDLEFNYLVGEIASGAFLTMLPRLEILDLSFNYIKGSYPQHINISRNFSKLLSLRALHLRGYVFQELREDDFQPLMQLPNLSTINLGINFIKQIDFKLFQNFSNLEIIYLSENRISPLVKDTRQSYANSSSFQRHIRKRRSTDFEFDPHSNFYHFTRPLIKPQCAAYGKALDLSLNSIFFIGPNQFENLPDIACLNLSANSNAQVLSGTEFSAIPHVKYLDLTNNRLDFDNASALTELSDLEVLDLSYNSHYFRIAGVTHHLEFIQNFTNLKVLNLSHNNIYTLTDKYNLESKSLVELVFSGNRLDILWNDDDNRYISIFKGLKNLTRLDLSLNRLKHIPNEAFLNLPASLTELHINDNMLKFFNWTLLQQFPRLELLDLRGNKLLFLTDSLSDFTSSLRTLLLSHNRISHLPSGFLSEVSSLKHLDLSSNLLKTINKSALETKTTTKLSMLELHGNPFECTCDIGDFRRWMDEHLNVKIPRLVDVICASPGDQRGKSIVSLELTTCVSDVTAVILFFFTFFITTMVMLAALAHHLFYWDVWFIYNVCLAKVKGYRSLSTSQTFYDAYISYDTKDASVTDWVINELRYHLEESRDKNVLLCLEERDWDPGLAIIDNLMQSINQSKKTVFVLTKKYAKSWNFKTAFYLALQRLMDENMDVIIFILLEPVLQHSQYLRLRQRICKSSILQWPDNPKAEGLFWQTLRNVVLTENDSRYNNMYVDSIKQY

Toll-like receptor 7 [3] = target: T1, Toll-like receptor 7; test: Agonist activity at human TLR7 in HEK-Blue hTLR7 cells assessed as activation of NFkappaB by SEAP reporter gene based spectrophotometry assay; format: cell-based; settings: hek-blue htlr7
Toll-like receptor 8 [4] = target: T2, Toll-like receptor 8; test: Agonist activity at human TLR8 in HEK-Blue hTLR8 cells assessed as activation of NFkappaB by SEAP reporter gene based spectrophotometry assay; format: cell-based; settings: hek-blue htlr8
[5] = Induction of IFN production in C3H/HeJ mouse splenocytes incubated for 18 hrs; format: functional; settings: Splenocyte, read-out: MEC
Toll-like receptor 8 [6] = target: T2, Toll-like receptor 8; test: Agonist activity at human TLR8 (27 to 287 residues) in HEK-Blue hTLR8 cells assessed as induction of NFkappaB by SEAP reporter gene based spectrophotometry assay; format: cell-based
[7] = target: T3, Toll-like receptor 8 (Homo sapiens) (UniProt Q9NR97); test: (§1) Agonist activity at TLR8 (unknown origin)
T3 sequence (whole entry): T2 sequence (Q9NR97 whole entry)

[8] = target: T4, Toll-like receptor 7 (Homo sapiens) (UniProt Q9NYK1); test: (§2) Agonist activity at TLR7 (unknown origin); settings: filed as agonist
T4 sequence (whole entry): T1 sequence (Q9NYK1 whole entry)

Toll-like receptor 7 [9] = target: T1, Toll-like receptor 7; test: as §2
Toll-like receptor 7 [10] = target: T1, Toll-like receptor 7; test: Agonist activity at human TLR7 transfected in HEK293 cells assessed as induction of SEAP production incubated overnight by SEAP reporter gene based assay; format: cell-based
[11] = target: T4, Toll-like receptor 7 (Homo sapiens); test: Agonist activity at human TLR7 transfected in HEK293 cells incubated for 6 hrs by luciferase based analysis; format: cell-based; settings: filed as agonist
[12] = target: T3, Toll-like receptor 8 (Homo sapiens); test: Agonist activity at human TLR8 transfected in HEK293 cells incubated for 6 hrs by luciferase based analysis; format: cell-based; settings: filed as agonist
Toll-like receptor 8 [13] = target: T2, Toll-like receptor 8; test: as §1
Toll-like receptor 8 [14] = target: T2, Toll-like receptor 8; test: Agonist activity at human TLR8 in HEK-Blue hTLR8 cells assessed as induction of SEAP production using nitrophenyl phosphate as substrate incubated for 20 hrs by microplate reader analysis; format: cell-based

- EC50 (Toll-like receptor 7 [1]): 9.77 nM
- EC50 (Toll-like receptor 8 [2]): > 10000 nM
SMILES: CCC[C@@H](CCO)Nc1nc(N)nc(C)c1Cc1ccc(CNCCO)cc1OC

- EC50 (Toll-like receptor 7 [3]): 3630 nM
- EC50 (Toll-like receptor 8 [4]): 1610 nM
SMILES: Nc1nc2ccccc2c2sc(CCC(F)(F)F)nc12

- EC50 (Toll-like receptor 7 [3]): 490 nM
- EC50 (Toll-like receptor 8 [4]): 420 nM
SMILES: CCCCc1nc2c(NC(=O)CCC)nc3ccccc3c2s1

SMILES: CCCCc1nc(N)c2nc(O)n(Cc3ccccc3)c2n1
- minimal effective concentration [5]: 0.03 µM

- EC50 (Toll-like receptor 8 [6]): 100000 nM
SMILES: CC(C)Oc1cc2ccccc2nc1N

- EC50 (Toll-like receptor 7 [3]): 9670 nM
- EC50 (Toll-like receptor 8 [4]): 10800 nM
SMILES: CC(C)c1nc2c(N)nc3ccccc3c2s1

- MEC [7]: > 25 µM
- MEC [8]: 0.18 µM
SMILES: COc1cc2cc(c1)O/C=C\CCOc1nc(N)c3nc(O)n(c3n1)C2

- MEC [7]: > 25 µM
- MEC [8]: 2 µM
SMILES: COc1ccc2cc1O/C=C\CCOc1nc(N)c3nc(O)n(c3n1)C2

- EC50 (Toll-like receptor 7 [9]): 1 nM
SMILES: CCCCOc1nc(N)c2[nH]c(C#N)c(Cc3ccc(CN4CCCC4)nc3)c2n1

- EC50 (Toll-like receptor 7 [10]): 56.4 nM
SMILES: COCCc1nc2c(N)nc3ccccc3c2n1CCCCN(CCN(C)C)Cc1cccc(OCC(=O)OC(C)(C)C)c1

SMILES: CCCCOc1nc(N)c2[nH]c(=O)n(Cc3ccccc3)c2n1
- minimal effective concentration [5]: 0.001 µM

SMILES: CCCCSc1nc(N)c2nc(O)n(Cc3ccccc3)c2n1
- minimal effective concentration [5]: 0.01 µM

- MEC [11]: 0.5 µM
- MEC [12]: 0.03 µM
SMILES: CCCC[C@@H](CO)Nc1nc(N)nc2ccsc12

- EC50 (Toll-like receptor 7 [9]): 750 nM
SMILES: CCCCNc1nc(N)nnc1OCc1ccccc1F

- EC50 (Toll-like receptor 7 [3]): 10200 nM
- EC50 (Toll-like receptor 8 [4]): 2060 nM
SMILES: CCCc1nc2c(N)nc3ccc(N=[N+]=[N-])cc3c2s1

- EC50 (Toll-like receptor 7 [1]): 81.3 nM
- EC50 (Toll-like receptor 8 [2]): > 10000 nM
SMILES: CCC[C@@H](CCO)Nc1nc(N)nc(C)c1Cc1ccc(CNCCC(N)=O)cc1OC

- EC50 (Toll-like receptor 7 [1]): 155 nM
- EC50 (Toll-like receptor 8 [2]): 6170 nM
SMILES: CCC[C@@H](CO)Nc1nc(N)nc(C)c1Cc1ccc(CNC2CN(C)C2)cc1OC

- EC50 (Toll-like receptor 7 [1]): 19.5 nM
- EC50 (Toll-like receptor 8 [2]): > 10000 nM
SMILES: CCC[C@@H](CCO)Nc1nc(N)nc(C)c1Cc1ccc(CNC2CNC2)cc1OC

- EC50 (Toll-like receptor 7 [9]): 8270 nM
SMILES: CCCCNc1nc(N)nnc1OC(C)C

SMILES: CCCCNc1nc(N)c2nc(O)n(Cc3ccccc3)c2n1
- minimal effective concentration [5]: 0.1 µM

- EC50 (Toll-like receptor 7 [9]): 17500 nM
SMILES: CCCCNc1nc(N)nnc1OC

- EC50 (Toll-like receptor 8 [13]): 1000 nM
- EC50 (Toll-like receptor 7 [9]): 4750 nM
SMILES: CCCCNc1nc(N)nnc1OCCOC

- EC50 (Toll-like receptor 7 [1]): < 6.31 nM
- EC50 (Toll-like receptor 8 [14]): 100 nM
SMILES: CCC[C@@H](CO)Nc1nc(N)nc(C)c1Cc1ccc(CN2CCN(C)CC2)cc1OC

- EC50 (Toll-like receptor 7 [10]): 150 nM
SMILES: CCOC(=O)COc1ccc(CN(CCCn2c(CCOC)nc3c(N)nc4ccccc4c32)C(=O)CN2CCCC2)cc1

- EC50 (Toll-like receptor 7 [1]): < 5.89 nM
- EC50 (Toll-like receptor 8 [14]): 63.1 nM
SMILES: CCC[C@@H](CO)Nc1nc(N)nc(C)c1Cc1ccc(CN2CCCC2)cc1OC

- EC50 (Toll-like receptor 7 [1]): 44.7 nM
- EC50 (Toll-like receptor 8 [2]): > 10000 nM
SMILES: CCC[C@@H](CCO)Nc1nc(N)nc(C)c1Cc1ccc(CNCC(N)=O)cc1OC
